Literature values as cited in patent US6849254B1, “HCV combination therapy” (Schering Corporation, priority 1999, dated 2005).

Experiments:
CD4 levels = conditions: HIV patients; higher doses; Phase I/II clinical trials (PharmaProjects)
[1] = for Potency of 1 mg in IU of Vitamin E: per 1 mg
[2] = system: chronic childhood cholestasis; conditions: 20-25 IU/kg/day (Sokool et al.)

Q: For `CC(C)(Sc1cc(C(C)(C)C)c(O)c(C(C)(C)C)c1)Sc1cc(C(C)(C)C)c(O)c(C(C)(C)C)c1` [Panavia, 4,4′-isopropylidenedithiobis-2,6-di-t-butylphenol], which CD4 levels (CD4 levels) is on record?
A: stablized or slightly stabilized CD4 levele

Q: With `Cc1c(C)c2c(c(C)c1O)CC[C@@](C)(CCC[C@H](C)CCC[C@H](C)CCCC(C)C)O2` [d-alpha tocopherol] as the compound, how does the “Potency of 1 mg in IU of Vitamin E” value [1] read?
A: 1.49 IU

Q: With `CC(=O)Oc1c(C)c(C)c2c(c1C)CC[C@@](C)(CCC[C@H](C)CCC[C@H](C)CCCC(C)C)O2` [d-alpha tocopheryl acetate] as the compound, how does the “Potency of 1 mg in IU of Vitamin E” value [1] read?
A: 1.36 IU

Q: With `Cc1c(C)c2c(c(C)c1OC(=O)CCC(=O)O)CC[C@@](C)(CCC[C@H](C)CCC[C@H](C)CCCC(C)C)O2` [d-alpha tocopheryl succinate] as the compound, how does the “Potency of 1 mg in IU of Vitamin E” value [1] read?
A: 1.21 IU

Q: With `CC(=O)Oc1c(C)c(C)c2c(c1C)CC[C@@](C)(CCC[C@H](C)CCC[C@H](C)CCCC(C)C)O2` [di-alpha tocopheryl acetate] as the compound, how does the “Amount equivalent to one IU of Vitamin E” value ([1]; per one IU of Vitamin E) read?
A: 1 mg

Q: With “d-alpha-tocopheryl polyethylene glycol 1000 succinate [Vitamin E-TPGS]” as the compound, how does the “Safety and efficacy in chronic childhood cholestasis” value [2] read?
A: appears to be safe and effective
